# Assay results reported in patent publication US7947869B2, “Methods for inducing cotton embryogenic callus” (Monsanto Technology LLC, priority 2007, dated 2011).
# Legend:
# Type in all cases: cell-based, cotton (cv. Coker 130)
# [1] = tested on: Agrobacterium-inoculated cotton hypocotyl explants; test: Effect of ACC on embryogenic callus from transformed tissue (pMON15722, kanamycin selection)
# Description: Addition of ACC produced a similar enhancing effect on producing embryogenic callus from transformed tissue. The hypocotyl explants were inoculated with Agrobacterium containing a plant transformation vector pMON15722 having an expression unit conferring kanamycin tolerance. The explants were pre-soaked in 2-hr in MSO glucose medium (Table 3) before inoculation. After 2 days of co-culture at about 24° C., the inoculated hypocotyl pieces were placed on WPSEL medium containing 45 mg/L of kanamycin for 4 weeks for callus induction. After callus induction, the explants were again transferred to WPSEL medium for another 4 weeks. Different concentrations of ACC were incorporated in the medium at this step.
# [2] = tested on: cotton hypocotyl explants; test: Effect of ACC during callus induction or embryogenic callus induction step
# Description: An ethylene precursor, 1-aminocyclopropane-1-carboxylic acid (ACC) was added at the step of undifferentiated callus formation, and removed prior to embryogenesis, to speed up embryogenic callus formation.
# Three studies were performed to define the effect of ACC on enhancing embryogenic callus formation. In the first experiment summarized in Table 19, hypocotyl explants were placed on UMSEL medium containing different concentrations of ACC (Treatments 2-6), or containing no ACC (treatment 7). The plates were unwrapped and placed in two separate boxes (Treatments 2-6 in one box and Treatments 7-12 in another), and cultured at 28° C. with a photoperiod of 16 hr light/8 hr darkness. After four weeks of callus induction, the calli were transferred to UMO medium without ACC (Treatments 2-6), or to UMO plus different concentrations of ACC (Treatments 8-12) for embryogenic callus induction. The plates were wrapped with PARAFILM at this stage.
# [3] = tested on: embryogenic cotton callus; test: Effect of brassinolide on embryo production at 9% and 21% O2 levels
# Description: When embryogenic callus was placed on brassinolide containing TRP+ medium (Table 9) at either 9% or 21% O2, more embryos were produced in the brassinolide treatments at 9% than at 21% O2. Lower level of 10 μM brassinolide gave the greatest response at 9% O2 but 100 μM level of brassinolide was more useful in 21% O2. […] Different levels of O2 were created by using a PRO-OX 110 oxygen control according to manufacturer's instructions (BioSpherix, Redfield, N.Y.) in a growth chamber (e.g. Percival Scientific, Inc., Perry, Iowa). Results in Table 12 indicate that brassinolide promotes the growth and development of embryos from cotton embryogenic callus.
# [4] = tested on: embryogenic cotton callus; test: Effect of brassinolide in TRP+ medium on production of embryos from embryogenic cotton callus
# Description: A brassinosteroid plant growth regulator was used to enhance cotton embryo formation. Brassinolide (i.e. 24-epibrassinolide; Super-Grow, Montreal, Calif.), at a concentration from 2 to 100 μM was added to TRP+ medium (Table 9). Embryogenic callus from the UMO medium (Table 8) was then cultured on TRP+ medium containing Brassinolide. […] Besides an increase in the overall production of embryos, many of the embryos produced from the brassinolide treatment were 5-6 mm long heart shaped embryos (more developed), whereas there were none at this stage in the control treatment. […]
# [5] = ACC 0.01 mM at callus induction step (UMSEL), removed on UMO
# [6] = ACC 0.1 mM at callus induction step (UMSEL)
# [7] = ACC 0.5 mM at callus induction step (UMSEL)
# [8] = ACC 1 mM at callus induction step (UMSEL)
# [9] = ACC 5 mM at callus induction step (UMSEL)
# [10] = 2 μM brassinolide in TRP+ medium
# [11] = 5 μM brassinolide in TRP+ medium
# [12] = 10 μM brassinolide in TRP+ medium
# [13] = 15 μM brassinolide in TRP+ medium
compound,measurement,setting,value
"NC1(C(=O)O)CC1 [ACC, 1-aminocyclopropane-1-carboxylic acid]",% Pieces w/ EC after 6 weeks on UMO medium with Kanamycin,[1]; ACC 10 μM during non-embryogenic callus growth on WPSEL,18.4%
same,% Pieces w/ EC after 6 weeks on UMO medium with Kanamycin,[1]; ACC 30 μM during non-embryogenic callus growth on WPSEL,22.1%
same,% Pieces w/ EC after 6 weeks on UMO medium with Kanamycin,[1]; ACC 60 μM during non-embryogenic callus growth on WPSEL,21.6%
same,% Pieces w/ EC after 6 weeks on UMO medium with Kanamycin,[1]; ACC 100 μM during non-embryogenic callus growth on WPSEL,26.5%
same,% Pieces w/ EC after 6 weeks on UMO medium with Kanamycin,[1]; ACC 150 μM during non-embryogenic callus growth on WPSEL,44.0%
same,% EC at 7 week,[2]; [5],80%
same,% EC at 9 week,[2]; [5],94%
same,% EC at 9 week,[2]; ACC 0.01 mM at embryogenic callus induction step (UMO),35%
same,% EC at 7 week,[2]; [6],50%
same,% EC at 9 week,[2]; [6],90%
same,% EC at 9 week,[2]; ACC 0.1 mM at embryogenic callus induction step (UMO),5%
same,% EC at 7 week,[2]; [7],58%
same,% EC at 9 week,[2]; [7],88%
same,% EC at 9 week,[2]; ACC 0.5 mM at embryogenic callus induction step (UMO),10%
same,% EC at 7 week,[2]; [8],28%
same,% EC at 9 week,[2]; [8],62%
same,% EC at 9 week,[2]; ACC 1 mM at embryogenic callus induction step (UMO),10%
same,% EC at 9 week,[2]; ACC 3 mM at embryogenic callus induction step (UMO),0%
same,% EC at 7 week,[2]; [9],0%
same,% EC at 9 week,[2]; [9],0%
"CC(C)[C@@H](C)[C@@H](O)[C@H](O)[C@@H](C)[C@H]1CC[C@H]2[C@@H]3COC(=O)[C@H]4C[C@H](O)[C@H](O)C[C@]4(C)[C@H]3CC[C@]12C [Brassinolide, 24-epibrassinolide]",Number of Embryos Produced,"[3]; 10 μM brassinolide, 9% O2, 4 weeks",18
same,Number of Embryos Produced,"[3]; 10 μM brassinolide, 9% O2, 7 weeks",30
same,Number of Embryos Produced,"[3]; 10 μM brassinolide, 9% O2, 9 weeks",48
same,Number of Embryos Produced,"[3]; 10 μM brassinolide, 21% O2, 4 weeks",21
same,Number of Embryos Produced,"[3]; 10 μM brassinolide, 21% O2, 7 weeks",28
same,Number of Embryos Produced,"[3]; 10 μM brassinolide, 21% O2, 9 weeks",21
same,Number of Embryos Produced,"[3]; 50 μM brassinolide, 9% O2, 4 weeks",8
same,Number of Embryos Produced,"[3]; 50 μM brassinolide, 9% O2, 7 weeks",12
same,Number of Embryos Produced,"[3]; 50 μM brassinolide, 9% O2, 9 weeks",35
same,Number of Embryos Produced,"[3]; 50 μM brassinolide, 21% O2, 4 weeks",10
same,Number of Embryos Produced,"[3]; 50 μM brassinolide, 21% O2, 7 weeks",8
same,Number of Embryos Produced,"[3]; 50 μM brassinolide, 21% O2, 9 weeks",11
same,Number of Embryos Produced,"[3]; 100 μM brassinolide, 9% O2, 4 weeks",1
same,Number of Embryos Produced,"[3]; 100 μM brassinolide, 9% O2, 7 weeks",9
same,Number of Embryos Produced,"[3]; 100 μM brassinolide, 9% O2, 9 weeks",21
same,Number of Embryos Produced,"[3]; 100 μM brassinolide, 21% O2, 4 weeks",6
same,Number of Embryos Produced,"[3]; 100 μM brassinolide, 21% O2, 7 weeks",9
same,Number of Embryos Produced,"[3]; 100 μM brassinolide, 21% O2, 9 weeks",33
same,Brassinolide level giving the greatest response,[3]; 9% O2,10 µM
same,Brassinolide level more useful,[3]; 21% O2,100 µM
same,Embryo stages: 2-3 mm globules,[4]; [10],3
same,Embryo stages: 5-6 mm heart shaped,[4]; [10],0
same,Total embryos,[4]; [10],3
same,Embryo stages: 2-3 mm globules,[4]; [11],10
same,Embryo stages: 5-6 mm heart shaped,[4]; [11],8
same,Total embryos,[4]; [11],18
same,Embryo stages: 2-3 mm globules,[4]; [12],6
same,Embryo stages: 5-6 mm heart shaped,[4]; [12],11
same,Total embryos,[4]; [12],17
same,Embryo stages: 2-3 mm globules,[4]; [13],6
same,Embryo stages: 5-6 mm heart shaped,[4]; [13],9
same,Total embryos,[4]; [13],15
